Tests used:
vitamin D receptor (VDR) = assay: Vitamin D-inducible growth hormone production in transfected COS-1 cells; assay type: cell-based, Green monkey; settings: for Total GH Production: averages of duplicate determinations
Description: The biological activity in vitro of chemically synthesized 1α,24(S)-(OH)2D2 and 1α,24(R)-(OH)2D2 was measured using a vitamin D-dependent transcriptional activation model system in which a vitamin D receptor (VDR)-expressing plasmid pSG5-hVDR1/3 and a plasmid p(CT4)^4TKGH containing a Growth Hormone (GH)-gene, under the control of a vitamin D-responsive element (VDRE) were co-transfected into Green monkey kidney, COS-1 cells. DNA's for these two vectors were supplied by Dr. Mark Haussler, Department of Biochemistry, University of Arizona, Tucson, Ariz.
Transfected cells were incubated with vitamin D metabolites and growth hormone production was measured.

[1] = test system: 1,25-(OH)2D3 receptor site; settings: Ishizuka et al., Steroids 1981, 1982; cited from earlier work
[2] = Blood metabolite levels in osteoporotic women administered 1α-OH-D2; assay type: in vivo, human
Description: An increase in the production of 1α,24(S)-(OH)2D2 relative to 1α,25-(OH)2D2 has also been observed by the present inventors in human females who received 1α-OH-D2 as part of an investigation of that drug for the treatment of osteoporosis. Following either a single dose of 2 μg of 1α-OH-D2 or daily doses of 8 μg/day for one week, blood was collected and analyzed for the metabolites 1α,24(S)-(OH)2D2 and 1α,25-(OH)2D2. Lipid was extracted from the blood, and the metabolites were purified by HPLC using standard methods and quantified with the radioreceptor assay produced by Incstar (Stillwater, Minn.). One day after a single 2 μg dose, the level of 1α,24(S)-(OH)2D2 was undetectable with the 1α,25-(OH)2D2 level being approximately 11 pg/ml. In contrast, one day following the last dose of 8 μg, the level of 1α,24(S)-(OH)2D2 averaged 9 pg/mL with the 1α,25-(OH)2D2 level averaging 30 pg/mL.

Hep 3B cells = assay: Metabolism of 1α-OH-D2 in Hep 3B cells; assay type: in vitro ADME, human; settings: Experiment 2, substrate 1α-OH-D2 10 μM, photodiode array spectrophotometry
Description: Substantially pure 1α-(OH)D2 was obtained from Bone Care International, Inc. of Madison, Wis. The 1α-(OH)D2 was cultured for 48 hours with cells derived from a human hepatoma, Hep 3B, in medium devoid of fetal calf serum using known methods in the art.
Lipid extracts of the combined medium and cells were generated by known methods in the art and were subjected to high pressure liquid chromatography (HPLC) on Zorbax-S1L developed with hexane/isopropano/methanol (91:7:2). The putative 1α,24(?)-(OH)2D2 metabolite eluted between the parent 1α-(OH)D2 and standard 1α,25-(OH)2D2 (also obtained from Bone Care International, Inc. of Madison, Wis.). (As used herein, the term “1α,24(?)-(OH)2D2” is meant to indicate that the epimeric form has not been identified.) The 1α,24(?)-(OH)2D2 was further purified by this HPLC system before the metabolite's identification was undertaken using mass spectrometry analysis.
Hep 3B cells were incubated with 1α-OH-D2, as described above, at final concentrations of 1, 10, or 100 nM (Experiment 1), and 1 or 10 μM (Experiment 2) and 1α,24(S)-(OH)2D2 was extracted and purified. The 1α,24(S)-(OH)2D2 and 1α,25-(OH)2D2 metabolites were quantitated by recovered radiolabel (Experiment 1) or by photodiode array spectrophotometry (Experiment 2).

bovine thymus VDR = biological target: T1, bovine thymus VDR (Bos taurus, UniProt Q28037); assay: Radioreceptor assay, displacement of 3H-1α,25-(OH)2D3 tracer from bovine thymus VDR; assay type: binding; settings: for binding affinity to VDR compared with reference standard (in words): environmentally exposed compounds; for ED50 (amount of material to displace 50% of the bound 3H-1α,25-dihydroxyvitamin D3): environmentally exposed crystalline and powdered material, FIG. 5
T1 construct: commercially available reagents of bovine thymus VDR; purchased Incstar (Stillwater, Minn.); host or cells: bovine thymus
T1 sequence (Q28037 1-426): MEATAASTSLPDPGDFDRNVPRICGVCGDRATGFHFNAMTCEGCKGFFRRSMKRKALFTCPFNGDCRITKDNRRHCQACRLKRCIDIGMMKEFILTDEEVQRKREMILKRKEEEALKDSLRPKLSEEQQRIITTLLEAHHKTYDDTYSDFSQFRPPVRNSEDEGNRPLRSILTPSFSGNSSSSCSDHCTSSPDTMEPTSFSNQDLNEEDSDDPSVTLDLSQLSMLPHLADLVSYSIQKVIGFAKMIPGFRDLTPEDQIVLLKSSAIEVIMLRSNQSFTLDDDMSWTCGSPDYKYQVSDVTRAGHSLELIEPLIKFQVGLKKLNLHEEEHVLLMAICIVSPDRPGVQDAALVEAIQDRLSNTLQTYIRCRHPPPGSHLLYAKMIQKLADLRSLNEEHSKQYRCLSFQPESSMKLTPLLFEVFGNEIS
Description: Purified 1α,24(S)-(OH)2D2 was quantitated by photodiode array spectrophotometry and assayed in the radioreceptor assay.
The purified 1α,24(R)-(OH)2D2 and 1α,24(S)-(OH)2D2 epimers were quantitated by ultraviolet spectroscopy.
The binding affinities of the environmentally exposed compounds, crystalline 1α,24-dihydroxyvitamin D2 and powdered 1α,24-dihydroxyvitamin D2, to the vitamin D receptor (VDR) were assessed using methods known in the art, as described, e.g., in Example 6. […] The percent bound versus amount of compound in pg/tube are graphed in FIG. 5.

[3] = cited from earlier work
[4] = Plasma metabolites in vitamin D-deficient rats; assay type: in vivo, rat; settings: for plasma metabolite after administration: oral or intraperitoneal, vitamin D-deficient rats, HPLC of plasma lipid extracts
Description: Vitamin D2 or 24-OH-D2 was administered (either oral or intraperitoneal supplementation) to vitamin D-deficient rats. Lipid extracts of the plasma were prepared and the metabolites purified by the method of Horst et al. (Horst, R. L., Koszewski, N.J. and Reinhardt, T. A., Biochem., 29:578-82 (1990)) described below for synthesyzing standard biological 1α,24-(OH)2D2.
Standard biological 1α,24-(OH)2D2 was synthesized in vitro from 24-OH-D2 by incubating 10 μg of 24-OH-D2 in flask containing 5 mL of 20% kidney homogenates made from vitamin D-deficient chicks. The product of this reaction was isolated by HPLC and identified by mass spectrometry.

[5] = Chemical stability testing, exposure to heat and light; assay type: physicochemical; settings: one week; for overall retention of the compound (remained intact): after heat and light; for share of UV absorbing material being 1α,24-dihydroxyvitamin D2 (HPLC): detection at 265 nm; for absorbence at 265 nm retained: specimens exposed to heat and light, reference standard in ethanol in a freezer
Description: Samples of approximately 5 mg of either crystalline or powdered 1α,24-dihydroxyvitamin D2 were each placed in a 5 mL volumetric flask. The flasks were exposed to identical environmental conditions of variations in heat and light. Heat and light are environmental parameters well-known to affect negatively the integrity of vitamin D compounds.
After one week's time, the contents of the flasks were visually inspected. The powdered specimen appeared to be slightly yellow in color compared to the crystalline specimen. Five mL of ethanol was added to each sample and each specimen was dissolved. These solutions were analyzed for ultraviolet absorbence from 200 to 320 nm. A reference standard 1α,24-dihydroxyvitamin D2 dissolved in ethanol at the same concentration and stored in a freezer for the identical time period was similarly analyzed.
The ethanol solutions of the crystalline and powdered 1α,24-dihydroxyvitamin D2 were also analyzed by high performance liquid chromatography (HPLC) under the following conditions: […]

For `C=C1/C(=C\C=C2/CCC[C@]3(C)[C@@H]([C@H](C)/C=C/[C@](C)(O)C(C)C)CC[C@@H]23)C[C@@H](O)C[C@@H]1O` [1α,24(R)-(OH)2D2, 1α,24(R)-dihydroxyvitamin D2], the “Net vitamin D-inducible GH-production” value (vitamin D receptor (VDR); inducer 5 × 10^−8 M) was 1138 ng/mL, the “Total GH Production” value (vitamin D receptor (VDR); inducer 5 × 10^−8 M) was 1182 ng/mL and the “Net vitamin D-inducible GH-production” value (vitamin D receptor (VDR); inducer 10^−7 M) was 1256 ng/mL. The “Total GH Production” value (vitamin D receptor (VDR); inducer 10^−7 M) was 1300 ng/mL, the “Net vitamin D-inducible GH-production” value (vitamin D receptor (VDR); inducer 10^−8 M) was 1056 ng/mL and the “Total GH Production” value (vitamin D receptor (VDR); inducer 10^−8 M) was 1100 ng/mL. For the same compound, the “Net vitamin D-inducible GH-production” value (vitamin D receptor (VDR); inducer 10^−9 M) was 36 ng/mL and the “Total GH Production” value (vitamin D receptor (VDR); inducer 10^−9 M) was 80 ng/mL.

For `C=C1/C(=C\C=C2/CCC[C@]3(C)[C@@H]([C@H](C)CC[C@@H](O)C(C)C)CC[C@@H]23)C[C@@H](O)C[C@@H]1O` [1α,24(R)-(OH)2D3, 1α,24(R)-dihydroxyvitamin D3], the “binding to the 1,25-(OH)2D3 receptor site relative to 1,25-(OH)2D3” value [1] is given as “more tightly than does 1,25-(OH)2D3 itself”.

In the case of `C=C1/C(=C\C=C2/CCC[C@]3(C)[C@@H]([C@H](C)/C=C/[C@H](C)C(C)(C)O)CC[C@@H]23)C[C@@H](O)C[C@@H]1O` [1α,25-(OH)2D2, 1α,25-dihydroxyvitamin D2, reference compound], the “blood level of metabolite” value ([2]; one day after a single 2 μg dose of 1α-OH-D2) was “approximately 11 pg/ml”, the “blood level of metabolite (average)” value ([2]; one day following the last dose of 8 μg/day 1α-OH-D2 for one week) was 0.03 ng/mL and the “Rate of Production” value (Hep 3B cells) was 7.4 pmol per 10^6 cells/day. It also gave a half-maximal binding (bovine thymus VDR; radioreceptor assay, Incstar kit) of 80 pg/mL.

For `C=C1/C(=C\C=C2/CCC[C@]3(C)[C@@H]([C@H](C)/C=C/[C@H](C)C(C)C)CC[C@@H]23)C[C@@H](O)C[C@@H]1O` [1α-(OH)D2, 1α-hydroxyvitamin D2], the “bone mass in human osteoporotic patients” value ([3]; dosages of 2.0 μg/day or higher) is listed as “will reverse the loss of bone mass”.

In the case of `C=C1/C(=C\C=C2/CCC[C@]3(C)[C@@H]([C@H](C)CCCC(C)C)CC[C@@H]23)C[C@@H](O)C[C@@H]1O` [1α-(OH)D3, 1α-hydroxyvitamin D3], the “safely obtainable dosage levels” value ([3]; human, in vivo) is given as “dosage levels of 2.0 μg/day or greater are not safely obtained”.

For `C=C1CC[C@H](O)C/C1=C/C=C1\CCC[C@]2(C)[C@@H]([C@H](C)/C=C/C(C)(O)C(C)C)CC[C@@H]12` (some centres unmarked) [24-OH-D2, 24-hydroxyvitamin D2], the “plasma metabolite after administration” value [4] was “one metabolite isolated co-migrated on HPLC with the standard 1α,24-(OH)2D2”.

In the case of `C=C1CC[C@H](O)C/C1=C/C=C1\CCC[C@]2(C)[C@@H]([C@H](C)CCCC(C)(C)O)CC[C@@H]12` [25-OH-D3, 25-hydroxyvitamin D3, reference compound], the “Net vitamin D-inducible GH-production” value (vitamin D receptor (VDR); inducer 10^−5 M) was 731 ng/mL, the “Total GH Production” value (vitamin D receptor (VDR); inducer 10^−5 M) was 775 ng/mL and the “Net vitamin D-inducible GH-production” value (vitamin D receptor (VDR); inducer 10^−6 M) was 1056 ng/mL. The “Total GH Production” value (vitamin D receptor (VDR); inducer 10^−6 M) was 1100 ng/mL, the “Net vitamin D-inducible GH-production” value (vitamin D receptor (VDR); inducer 10^−7 M) was 201 ng/mL and the “Total GH Production” value (vitamin D receptor (VDR); inducer 10^−7 M) was 245 ng/mL.

In the case of `C=C1C(=CC=C2CCCC3(C)C2CCC3C(C)C=CC(C)(O)C(C)C)CC(O)CC1O` (stereo not drawn) [crystalline 1α,24-dihydroxyvitamin D2, 1α,24-dihydroxyvitamin D2], the “overall retention of the compound (remained intact)” value [5] was “over 88%”, the “share of UV absorbing material being 1α,24-dihydroxyvitamin D2 (HPLC)” value (“share” below) [5] was 95% and the “retention of the structure, weight-based normalization of the HPLC peak area” value ([5]; listed as crystalline specimen) was 93%. The “absorbence at 265 nm retained” value ([5]; listed as crystalline specimen) was 93%, the “binding affinity to VDR compared with reference standard (in words)” value (bovine thymus VDR) was “approximately the same as that of a reference standard” and the “ED50 (amount of material to displace 50% of the bound 3H-1α,25-dihydroxyvitamin D3)” value (bovine thymus VDR; listed as crystalline material) was “about 10 pg/tube”.

In the case of `C=C1C(=CC=C2CCCC3(C)C2CCC3C(C)C=CC(C)(O)C(C)C)CC(O)CC1O` (stereo not drawn) [powdered 1α,24-dihydroxyvitamin D2, 1α,24-dihydroxyvitamin D2], the “overall retention of the compound (remained intact)” value [5] was 35%, the “share” value [5] was 78% and the “retention of the structure, weight-based normalization of the HPLC peak area” value ([5]; listed as powdered specimen) was 23%. For the same compound, the “absorbence at 265 nm retained” value ([5]; listed as powdered specimen) was 45%, the “binding affinity to VDR compared with reference standard (in words)” value (bovine thymus VDR) was “considerably less” and the “ED50 (amount of material to displace 50% of the bound 3H-1α,25-dihydroxyvitamin D3)” value (bovine thymus VDR) was “about 40 pg/tube”. For the same compound, the “binding activity relative to standard 1α,24-dihydroxyvitamin D2” value (bovine thymus VDR; powder form exposed to the same conditions) was “less than 25%”.

For `C=C1C(=CC=C2CCCC3(C)C2CCC3C(C)C=CC(C)(O)C(C)C)CC(O)CC1O` (stereo not drawn) [reference standard, 1α,24-dihydroxyvitamin D2], the “retention of the structure, weight-based normalization of the HPLC peak area” value [5] was 100%, the “share” value [5] was 96% and the “absorbence at 265 nm retained” value [5] was 100%. For the same compound, the “ED50 (amount of material to displace 50% of the bound 3H-1α,25-dihydroxyvitamin D3)” value (bovine thymus VDR) was “about 10 pg/tube”.

With `C=C1CC[C@H](O)C/C1=C/C=C1\CCC[C@]2(C)[C@@H]([C@H](C)/C=C/[C@H](C)C(C)C)CC[C@@H]12` [vitamin D2] the “plasma metabolite after administration” value [4] was “one metabolite isolated co-migrated on HPLC with the standard 1α,24-(OH)2D2”.

In the case of `C=C1CC[C@H](O)C/C1=C/C=C1\CCC[C@]2(C)[C@@H]([C@H](C)CCCC(C)C)CC[C@@H]12` [vitamin D3], the “24-hydroxylated metabolite in plasma after administration” value ([4]; comparable rats) was “no detectable 24-OH-D3”.

From patent US6538037B2, “Methods for preparation and use of 1α,24(S)-dihydroxyvitamin D2” (Bone Care International, Inc., priority 1991, dated 2003)
